The target of data set [1] is T1, dopamine-β-hydroxylase (DBH) (Bos taurus, UniProt P15101).
T1 sequence (P15101 1-610): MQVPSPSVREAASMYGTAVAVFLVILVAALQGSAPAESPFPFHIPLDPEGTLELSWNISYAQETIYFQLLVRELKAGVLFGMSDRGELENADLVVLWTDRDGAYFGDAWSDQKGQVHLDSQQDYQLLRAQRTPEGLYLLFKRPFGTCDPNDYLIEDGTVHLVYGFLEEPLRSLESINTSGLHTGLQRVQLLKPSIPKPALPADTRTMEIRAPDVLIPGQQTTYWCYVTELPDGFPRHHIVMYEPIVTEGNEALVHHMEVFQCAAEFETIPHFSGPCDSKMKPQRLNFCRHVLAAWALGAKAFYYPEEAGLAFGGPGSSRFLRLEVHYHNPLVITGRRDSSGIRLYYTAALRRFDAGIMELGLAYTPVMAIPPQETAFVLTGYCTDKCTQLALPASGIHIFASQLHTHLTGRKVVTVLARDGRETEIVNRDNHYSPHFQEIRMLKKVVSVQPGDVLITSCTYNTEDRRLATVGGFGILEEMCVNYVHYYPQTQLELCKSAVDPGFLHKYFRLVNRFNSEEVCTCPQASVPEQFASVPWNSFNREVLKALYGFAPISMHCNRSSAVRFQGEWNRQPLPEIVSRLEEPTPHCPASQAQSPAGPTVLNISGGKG
Kind of data set: in vitro DBH inhibition, conversion of tyramine to octopamine (absorbance at 330 nm). Type of data set: biochemical. As to the method:
Compounds of the invention and other compounds useful in the method of the invention were screened for in vitro DBH inhibition by a standard procedure for assaying conversion of tyramine to octopamine in the presence of DBH. Octopamine was assayed following sodium periodate oxidation to p-hydroxybenzaldehyde by measuring spectrophotometric absorbance at 330 nm. Inhibition is given in molar concentration of compound at which DBH activity was halved (IC50). Melting points (mp) are given in °C.

In data set [2] the target is T1, dopamine-β-hydroxylase (DBH). The description is as above. It is filed as biochemical. Conditions: read-out: DBH inhibition, % at 10^-4 M.
For data set [3], the system named is peripheral dopamine (DA) and norepinephrine (NE) levels. Kind of data set: effects in vivo on peripheral dopamine (DA) and norepinephrine (NE) levels. Also noted: species or system Spontaneously hypertensive rats. Conditions: dosed twice about 18 hours apart, sacrificed about 2 hours after second dose, mean of 5 animals; for DA / NE: per gram of tissue. The procedure: Various compounds of the invention were tested for their effects in vivo on peripheral dopamine (DA) and norepinephrine (NE) levels substantially by the procedure of DaPrada and Zurcher, Life Sci., 19, 1161, (1976). Spontaneously hypertensive rats were dosed twice, the second dose being abut 18 hours after the first, and were sacrificed about 2 hours after the second dose.

A short description of data set [4]: mean arterial blood pressure, indwelling cannulae in tail artery. Type of data set: in vivo, Spontaneously hypertensive rats. The following applies: 50 mg/kg i.p. As to the method: Further, the same rats were dosed with a suspension or solution at a dose of 50 mg/kg of test compound i.p. and mean arterial blood pressure determined with indwelling cannulae inserted into the tail artery.

The conditions of data set [5]: Teresawa et al., Japan, Cir. J. 35, 339 (1971); cited from earlier work.
The mark [6] stands for this setting: in vitro, tyramine to octopamine, read-out: IC50 value (molar concentration of compound at which DBH activity was halved).

Where a name gives a salt, the structure may show the parent alone. Read-outs that look alike come from different tables or passages of the source.

A word on the inhibition: it is how much of the control response was suppressed.

For `NCc1nc2ccccc2n1Cc1cccc(Cl)c1` [Example 40, 1-[3-chlorobenzyl]-2-aminomethylbenzimidazole dihydrochloride], in data set [1] (setting [6]), the IC50 is 113 µM. Regarding `COc1ccc(Cn2c(S)nc3ccccc32)cc1` [Example 7, 1-(4-methoxybenzyl)-2-mercaptobenzimidazole], the inhibition at 100 µM in data set [2] stood at 6%. On to `Sc1nc2ccccc2n1Cc1ccccc1` [Example 5, N-benzyl-2-mercaptobenzimidazole], for which, in data set [1] (setting [6]), the IC50 worked out at 61 µM. As to `Oc1c(Cl)cc(Cn2c(S)nc3ccccc32)cc1Cl` [Example 8, 1-(3,5-dichloro-4-hydroxybenzyl)-2-mercaptobenzimidazole], in data set [1] (setting [6]), the IC50 is 3.8 µM. As for `Sc1nc2ccccc2n1Cc1c(Cl)cccc1Cl` [Example 2, 1-(2,6-dichlorobenzyl)-2-mercaptobenzimidazole], the inhibition at 100 µM in data set [2] was 60%. Consider `Sc1nc2ccccc2n1Cc1cc(Cl)cc(Cl)c1` [Example 4, 1-(3,5-dichlorobenzyl)-2-mercaptobenzimidazole], for which the inhibition at 100 µM in data set [2] amounted to 70%. For `Oc1c(F)cc(Cn2c(S)nc3ccccc32)cc1F` [Example 9, 1-(3,5-difluoro-4-hydroxybenzyl)-2-mercaptobenzimidazole], in data set [1] (setting [6]), the IC50 was 0.66 µM. Turning to `COc1c(F)cc(Cn2c(S)nc3ccccc32)cc1F` [Example 3, 1-(3,5-difluoro-4-methoxybenzyl)-2-mercaptobenzimidazole], in data set [3], the “DA/NE Ratio” value is given as 0.055, the DA turned out to be 0.397 µg/g and the NE came out at 7.82 µg/g. As for `Oc1ccc(Cn2c(S)nc3ccccc32)cc1` [Example 10, 1-(4-hydroxybenzyl)-2-mercaptobenzimidazole], in data set [1] (setting [6]), the IC50 came to 13 µM. For `Fc1cc(F)cc(Cn2c(S)nc3ccccc32)c1` [Example 6, 1-(3,5-difluorobenzyl)-2-mercaptobenzimidazole], in data set [3], the “DA/NE Ratio” value was 0.086, the DA was 0.607 µg/g and the NE was found to be 7.054 µg/g. Further, the IC50 in data set [1] (setting [6]) turned out to be 6.2 µM. Besides, the mean arterial pressure result in data set [4] is reported as “significant reduction in mean arterial pressure”. As to `NCc1nc2ccccc2n1Cc1ccccc1` [Example 37, 1-Benzyl-2-aminomethylbenzimidazole hydrochloride], the IC50 in data set [1] (setting [6]) amounted to 0.12 µM. For `CCCCc1ccc(C(=O)O)nc1` [fusaric acid, reference compound], the hepatotoxicity entry in data set [5] was “hepatotoxic”. Besides, in data set [1], the IC50 was approximately 0.8 µM. For the compound `NCc1nc2ccccc2n1Cc1ccc(Cl)c(Cl)c1` [Example 38, 1-[3,4-Dichlorobenzyl]-2-aminomethylbenzimidazole dihydrochloride], the IC50 in data set [1] (setting [6]) was 69 µM. On the same count and under the same terms, the figure for `NCc1nc2ccccc2n1Cc1cccc(F)c1` [Example 39, 1-[3-fluorobenzyl]-2-aminomethylbenzimidazole dihydrofluoride] is 130 µM.

These data come from patent US4857540A, “Dopamine-β-hydroxylase inhibitors” (SmithKline Beckman Corporation, priority 1987, dated 1989).
